For 14 compounds, Ki results are on record in ChEMBL document CHEMBL5725362, “Long chain base sphingosine kinase inhibitors” (2017).

As usually defined, the Ki is a dissociation constant, usually derived from enzyme kinetics or from competition with a known ligand.

Structures are written as SMILES.

For this experiment, the target named is Sphingosine kinase 1 (Homo sapiens, UniProt Q9NYA1). The experiment in a line: Scintillation Proximity Assay: SphK activity was measured by a scintillation proximity assay as previously described [1], the disclosure of which is incorporated herein. Briefly, recombinant SphK1 or SphK2 were expressed in Sf9 insect cells, crude homogenates were prepared and incubated in 96 well FlashPlates (Perkin-Elmer) in a buffer containing D-erythro-sphingosine and γ-[33P]ATP. The [33P]S1P ….
Sphingosine kinase 1, sequence (Q9NYA1 whole entry): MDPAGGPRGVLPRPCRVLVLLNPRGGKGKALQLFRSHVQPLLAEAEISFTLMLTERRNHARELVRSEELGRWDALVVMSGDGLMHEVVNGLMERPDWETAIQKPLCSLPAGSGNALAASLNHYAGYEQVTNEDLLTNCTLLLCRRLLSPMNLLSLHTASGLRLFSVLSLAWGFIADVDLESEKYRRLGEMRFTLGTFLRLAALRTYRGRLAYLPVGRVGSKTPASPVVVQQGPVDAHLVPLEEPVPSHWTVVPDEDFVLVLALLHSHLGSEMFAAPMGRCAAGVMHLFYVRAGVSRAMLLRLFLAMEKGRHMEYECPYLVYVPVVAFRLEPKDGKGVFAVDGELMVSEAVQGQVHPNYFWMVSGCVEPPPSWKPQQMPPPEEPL
As to `N=C(N)N1CCC[C@H]1c1nc(-c2ccc(CS(=O)(=O)c3ccccc3)cc2)no1`, the Ki is more than 10000 nM. In the case of `CCCCCCCCCCCCc1cccc(-c2noc(C3(C(=N)N)CC3)n2)c1` it was less than 1000 nM. In the case of `N=C(N)C1(c2nnc(-c3ccc(CCCCCCCOCC4CCCCC4)cc3)o2)CC1` it was less than 1000 nM; in that of `N=C(N)C1(c2nc(-c3cccc(CCCCCCOCC4CCCCC4)c3)no2)CC1`, less than 1000 nM; in that of `CCCCCCCCCCCc1cc(-c2noc(C3(C(=N)N)CC3)n2)ccc1C`, less than 1000 nM. Regarding `CCCCCCCCCCCc1ccc(F)c(-c2nnc(C3(C(=N)N)CC3)o2)c1`, the Ki is less than 1000 nM. As to `CCCCCCCCCCCc1cc(-c2nnc(C3(C(=N)N)CC3)o2)ccc1C`, the Ki was less than 1000 nM. In the case of `CCCCCCCCCCCc1cc(-c2nnc(C3(C(=N)N)CC3)o2)ccc1F` it was less than 1000 nM; in that of `N=C(N)C1(c2nnc(-c3cccc(CCCCCCOCC4CCCCC4)c3)o2)CC1`, less than 1000 nM; in that of `CCCCCCCCCCc1ccc(/C=C/C2(C(=N)N)CC2)cc1`, more than 10000 nM. In the case of `N=C(N)C1(c2nc(-c3cccc(CCc4cccc(CCC5CCCCC5)c4)c3)no2)CC1`, the Ki is less than 1000 nM.

`CCCCCCCCCCCc1cccc(-c2nc(C3(C(=N)N)CC3)n[nH]2)c1`: the Ki was less than 1000 nM.

As for `CCCCCCCCCCCc1cccc(-c2nnc(C3(C(=N)N)CC3)o2)c1`, the Ki was less than 1000 nM. Turning to `CCCCCCCCCCCc1ccc(C)c(-c2nnc(C3(C(=N)N)CC3)o2)c1`, the Ki is less than 1000 nM.
